The subject of the experiment is NCI-H460. Kind of experiment: Antimigratory activity in human NCI-H460 cells exogenously expressing DOT1L R231Q mutant (unknown origin) (1 to 416 residues) assessed as decrease in number of migrating cells at 2.5 to 5 uM measured after 72 hrs by wound healing assay. The class given is functional, cell-based. The settings on record: dose 2.5-5 µM.

From ChEMBL document CHEMBL5608241, “Discovery of Novel Non-nucleoside DOT1LR231Q Inhibitors with Improved Pharmacokinetic Properties and Anti-lung Cancer Efficacy” (J Med Chem, 2024) come the findings set out here.

The source made the active and inactive calls. No cut-off for these calls is given here.

`CC(C)(C)c1ccc(NC(=O)NCCCN(CCCN2CCOCC2)CC2(O)CCN(c3nc(Cl)nc4sccc34)C2)cc1` (stereo unspecified): the result was Active.
